{"source": "ChEMBL document CHEMBL5465560", "about": "“Selectivity Literature for EUbOPEN Chemogenomic Library” (2024)", "key": {"[1]": {"biological_target": "Mitogen-activated protein kinase kinase kinase 10 (Homo sapiens) (UniProt Q02779)", "sequence (Q02779 whole entry, looked up)": "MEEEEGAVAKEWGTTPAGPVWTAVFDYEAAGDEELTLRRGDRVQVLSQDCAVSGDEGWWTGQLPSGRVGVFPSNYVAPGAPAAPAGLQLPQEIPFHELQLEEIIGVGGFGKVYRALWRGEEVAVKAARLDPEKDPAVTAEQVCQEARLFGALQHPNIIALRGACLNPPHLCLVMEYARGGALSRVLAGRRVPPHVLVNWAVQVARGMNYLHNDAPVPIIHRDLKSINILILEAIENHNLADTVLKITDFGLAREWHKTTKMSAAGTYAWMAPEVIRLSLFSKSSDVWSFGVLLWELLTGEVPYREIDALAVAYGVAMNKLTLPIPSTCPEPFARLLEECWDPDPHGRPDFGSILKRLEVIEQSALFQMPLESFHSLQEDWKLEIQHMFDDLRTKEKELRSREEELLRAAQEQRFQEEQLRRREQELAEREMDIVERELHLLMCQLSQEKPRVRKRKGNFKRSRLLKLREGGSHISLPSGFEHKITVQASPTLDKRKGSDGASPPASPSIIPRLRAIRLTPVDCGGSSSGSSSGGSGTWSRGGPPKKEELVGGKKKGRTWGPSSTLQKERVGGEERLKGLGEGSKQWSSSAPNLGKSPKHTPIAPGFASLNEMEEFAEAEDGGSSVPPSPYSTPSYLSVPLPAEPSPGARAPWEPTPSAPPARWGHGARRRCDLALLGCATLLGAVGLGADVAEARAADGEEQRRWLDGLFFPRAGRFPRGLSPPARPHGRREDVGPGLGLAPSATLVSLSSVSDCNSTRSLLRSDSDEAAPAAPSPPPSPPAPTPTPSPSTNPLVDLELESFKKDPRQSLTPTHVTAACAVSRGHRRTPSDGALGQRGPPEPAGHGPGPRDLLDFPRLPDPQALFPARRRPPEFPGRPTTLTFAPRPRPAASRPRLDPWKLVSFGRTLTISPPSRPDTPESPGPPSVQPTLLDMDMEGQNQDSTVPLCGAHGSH", "assay": "Selectivity interaction (KinomeScan (DiscoverX)) EUB0000695a MAP3K10", "details": "at 100 nM"}, "[2]": {"biological_target": "Glutamate receptor 1 (Homo sapiens) (UniProt P42261)", "sequence (P42261 whole entry)": "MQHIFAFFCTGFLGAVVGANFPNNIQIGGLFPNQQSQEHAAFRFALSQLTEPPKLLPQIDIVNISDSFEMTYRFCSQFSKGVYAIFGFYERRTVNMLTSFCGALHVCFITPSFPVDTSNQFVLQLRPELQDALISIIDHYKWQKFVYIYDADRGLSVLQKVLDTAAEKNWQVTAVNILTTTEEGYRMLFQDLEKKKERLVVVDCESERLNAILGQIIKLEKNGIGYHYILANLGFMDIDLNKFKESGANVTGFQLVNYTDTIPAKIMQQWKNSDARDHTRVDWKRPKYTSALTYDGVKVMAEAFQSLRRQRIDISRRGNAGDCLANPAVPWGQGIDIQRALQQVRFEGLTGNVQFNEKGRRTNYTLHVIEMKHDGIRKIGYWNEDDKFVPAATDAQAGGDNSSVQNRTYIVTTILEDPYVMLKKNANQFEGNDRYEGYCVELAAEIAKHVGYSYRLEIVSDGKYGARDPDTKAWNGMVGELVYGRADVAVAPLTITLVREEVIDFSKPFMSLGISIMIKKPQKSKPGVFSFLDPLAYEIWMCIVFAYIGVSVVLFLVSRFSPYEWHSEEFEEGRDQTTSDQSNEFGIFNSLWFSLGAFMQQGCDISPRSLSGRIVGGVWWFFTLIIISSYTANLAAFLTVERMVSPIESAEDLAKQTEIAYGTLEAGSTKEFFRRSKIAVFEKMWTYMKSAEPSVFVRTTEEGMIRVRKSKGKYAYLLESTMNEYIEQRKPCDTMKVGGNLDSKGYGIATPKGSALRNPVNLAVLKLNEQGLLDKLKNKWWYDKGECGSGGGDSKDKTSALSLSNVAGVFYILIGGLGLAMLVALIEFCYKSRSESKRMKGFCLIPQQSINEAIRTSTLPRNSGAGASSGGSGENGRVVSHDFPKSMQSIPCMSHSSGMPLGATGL", "assay": "Selectivity interaction (Eurofins CEREP Diversity Profile (receptors and ion channels)) EUB0000279b GRIA1", "details": "at 10 µM"}, "[3]": {"biological_target": "T1, Phosphatidylinositol 3-kinase C2 domain-containing subunit gamma (Homo sapiens) (UniProt O75747)", "T1 sequence (whole entry)": "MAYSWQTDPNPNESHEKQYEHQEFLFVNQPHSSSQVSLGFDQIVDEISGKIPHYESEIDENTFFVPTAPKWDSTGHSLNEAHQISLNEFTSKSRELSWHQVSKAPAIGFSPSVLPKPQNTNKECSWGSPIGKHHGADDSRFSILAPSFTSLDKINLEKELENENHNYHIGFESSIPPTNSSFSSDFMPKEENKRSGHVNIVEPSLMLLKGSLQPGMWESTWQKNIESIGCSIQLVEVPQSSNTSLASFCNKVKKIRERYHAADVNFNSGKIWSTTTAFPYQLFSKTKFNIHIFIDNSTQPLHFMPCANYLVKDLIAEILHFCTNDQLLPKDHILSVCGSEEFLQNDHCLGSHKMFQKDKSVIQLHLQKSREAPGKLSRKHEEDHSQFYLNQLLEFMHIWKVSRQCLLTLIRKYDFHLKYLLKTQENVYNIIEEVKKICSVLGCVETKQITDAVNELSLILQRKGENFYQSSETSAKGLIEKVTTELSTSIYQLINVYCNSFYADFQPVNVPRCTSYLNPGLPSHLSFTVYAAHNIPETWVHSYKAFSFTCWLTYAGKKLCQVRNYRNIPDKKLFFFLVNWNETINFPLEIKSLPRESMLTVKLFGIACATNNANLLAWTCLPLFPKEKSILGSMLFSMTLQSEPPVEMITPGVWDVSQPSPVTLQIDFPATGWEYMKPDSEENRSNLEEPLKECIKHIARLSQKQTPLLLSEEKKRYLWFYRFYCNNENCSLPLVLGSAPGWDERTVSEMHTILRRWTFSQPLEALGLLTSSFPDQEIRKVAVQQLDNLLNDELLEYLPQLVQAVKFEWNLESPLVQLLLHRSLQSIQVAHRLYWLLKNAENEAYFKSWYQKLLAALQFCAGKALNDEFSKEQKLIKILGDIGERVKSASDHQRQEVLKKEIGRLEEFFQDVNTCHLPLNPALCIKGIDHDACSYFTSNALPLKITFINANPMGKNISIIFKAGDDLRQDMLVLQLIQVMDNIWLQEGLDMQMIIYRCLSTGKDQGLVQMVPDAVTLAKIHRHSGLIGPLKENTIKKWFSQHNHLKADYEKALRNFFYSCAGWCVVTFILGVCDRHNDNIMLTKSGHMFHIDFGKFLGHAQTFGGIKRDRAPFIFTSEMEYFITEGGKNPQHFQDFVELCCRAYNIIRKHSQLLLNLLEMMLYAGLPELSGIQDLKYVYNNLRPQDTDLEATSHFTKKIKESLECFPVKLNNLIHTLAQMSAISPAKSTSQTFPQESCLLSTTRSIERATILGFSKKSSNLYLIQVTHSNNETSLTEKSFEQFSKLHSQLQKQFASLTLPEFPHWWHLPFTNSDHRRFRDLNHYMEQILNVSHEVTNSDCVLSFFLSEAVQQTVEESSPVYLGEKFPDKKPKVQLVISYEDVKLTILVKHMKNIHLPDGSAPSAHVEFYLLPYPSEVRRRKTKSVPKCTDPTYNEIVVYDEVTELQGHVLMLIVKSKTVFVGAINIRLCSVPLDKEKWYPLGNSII", "assay": "Selectivity interaction (KinomeScan (DiscoverX)) EUB0000229b PIK3C2G", "details": "at 10 µM"}, "[4]": {"biological_target": "T2, Serine/threonine-protein kinase Chk1 (Homo sapiens) (UniProt O14757)", "T2 sequence (whole entry)": "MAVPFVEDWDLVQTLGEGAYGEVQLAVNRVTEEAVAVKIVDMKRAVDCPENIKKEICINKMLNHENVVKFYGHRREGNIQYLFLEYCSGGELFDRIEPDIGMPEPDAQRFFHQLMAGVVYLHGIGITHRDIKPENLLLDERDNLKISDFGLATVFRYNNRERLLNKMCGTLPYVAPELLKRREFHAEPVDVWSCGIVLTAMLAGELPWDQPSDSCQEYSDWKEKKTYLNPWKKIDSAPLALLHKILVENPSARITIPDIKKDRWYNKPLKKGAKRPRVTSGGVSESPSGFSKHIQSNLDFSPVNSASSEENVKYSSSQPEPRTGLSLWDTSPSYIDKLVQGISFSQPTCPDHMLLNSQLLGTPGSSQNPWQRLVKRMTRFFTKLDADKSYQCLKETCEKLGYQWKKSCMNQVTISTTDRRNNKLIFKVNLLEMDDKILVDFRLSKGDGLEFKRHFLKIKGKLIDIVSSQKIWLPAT", "assay": "Selectivity interaction (KinomeScan (DiscoverX)) EUB0001079a CHEK1", "details": "at 1 µM"}, "[5]": {"biological_target": "Calcium/calmodulin-dependent protein kinase kinase 1 (Homo sapiens) (UniProt Q8N5S9)", "sequence (Q8N5S9 whole entry, looked up)": "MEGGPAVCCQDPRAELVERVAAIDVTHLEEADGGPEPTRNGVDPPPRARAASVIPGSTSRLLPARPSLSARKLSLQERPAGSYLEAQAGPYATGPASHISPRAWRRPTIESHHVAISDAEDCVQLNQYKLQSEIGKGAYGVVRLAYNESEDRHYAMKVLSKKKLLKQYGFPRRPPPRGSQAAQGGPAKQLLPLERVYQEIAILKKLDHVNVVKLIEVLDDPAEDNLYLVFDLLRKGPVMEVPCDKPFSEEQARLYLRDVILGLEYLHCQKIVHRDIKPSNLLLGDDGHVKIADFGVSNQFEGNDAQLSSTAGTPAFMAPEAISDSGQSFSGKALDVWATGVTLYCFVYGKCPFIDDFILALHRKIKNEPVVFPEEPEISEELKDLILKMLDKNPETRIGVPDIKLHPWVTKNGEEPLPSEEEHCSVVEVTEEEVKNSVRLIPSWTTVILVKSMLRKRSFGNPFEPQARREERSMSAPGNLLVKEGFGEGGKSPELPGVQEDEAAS", "assay": "Selectivity interaction (KinomeScan (DiscoverX)) EUB0000045b CAMKK1"}, "[6]": {"biological_target": "Bone morphogenetic protein receptor type-1A (Homo sapiens, UniProt P36894)", "sequence (P36894 whole entry)": "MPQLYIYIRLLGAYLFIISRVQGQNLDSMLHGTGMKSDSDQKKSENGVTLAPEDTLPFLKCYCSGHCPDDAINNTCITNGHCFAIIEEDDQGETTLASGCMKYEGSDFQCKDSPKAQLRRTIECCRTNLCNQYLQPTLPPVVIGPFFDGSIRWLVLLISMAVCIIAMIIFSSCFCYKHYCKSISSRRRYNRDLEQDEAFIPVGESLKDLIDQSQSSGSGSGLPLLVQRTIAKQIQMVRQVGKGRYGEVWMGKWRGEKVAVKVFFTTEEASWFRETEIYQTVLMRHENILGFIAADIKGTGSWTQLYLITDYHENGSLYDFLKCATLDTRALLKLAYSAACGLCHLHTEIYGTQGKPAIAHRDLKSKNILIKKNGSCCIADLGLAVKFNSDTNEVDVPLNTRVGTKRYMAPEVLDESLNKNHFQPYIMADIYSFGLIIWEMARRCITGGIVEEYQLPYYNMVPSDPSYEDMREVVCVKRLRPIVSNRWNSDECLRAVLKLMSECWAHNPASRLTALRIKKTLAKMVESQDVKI", "assay": "Selectivity interaction (KinomeScan (DiscoverX)) EUB0000045b BMPR1A"}, "[7]": {"biological_target": "Cyclin-dependent kinase-like 1 (Homo sapiens) (UniProt Q00532)", "sequence (Q00532 whole entry)": "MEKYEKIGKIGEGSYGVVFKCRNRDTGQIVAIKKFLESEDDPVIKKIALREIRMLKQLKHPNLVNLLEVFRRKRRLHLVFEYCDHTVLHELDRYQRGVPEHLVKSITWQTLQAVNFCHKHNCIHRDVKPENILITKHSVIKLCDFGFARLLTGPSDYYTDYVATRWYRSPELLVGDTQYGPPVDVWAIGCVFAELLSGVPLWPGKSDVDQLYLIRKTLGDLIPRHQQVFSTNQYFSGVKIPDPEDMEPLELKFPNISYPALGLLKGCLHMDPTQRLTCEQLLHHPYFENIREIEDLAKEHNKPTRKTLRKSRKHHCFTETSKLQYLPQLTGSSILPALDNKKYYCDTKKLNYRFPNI", "assay": "Selectivity interaction (KinomeScan (DiscoverX)) EUB0000655a CDKL1", "details": "at 10 µM"}, "[8]": {"biological_target": "T3, Muscarinic acetylcholine receptor M2 (Homo sapiens) (UniProt P08172)", "T3 sequence (whole entry)": "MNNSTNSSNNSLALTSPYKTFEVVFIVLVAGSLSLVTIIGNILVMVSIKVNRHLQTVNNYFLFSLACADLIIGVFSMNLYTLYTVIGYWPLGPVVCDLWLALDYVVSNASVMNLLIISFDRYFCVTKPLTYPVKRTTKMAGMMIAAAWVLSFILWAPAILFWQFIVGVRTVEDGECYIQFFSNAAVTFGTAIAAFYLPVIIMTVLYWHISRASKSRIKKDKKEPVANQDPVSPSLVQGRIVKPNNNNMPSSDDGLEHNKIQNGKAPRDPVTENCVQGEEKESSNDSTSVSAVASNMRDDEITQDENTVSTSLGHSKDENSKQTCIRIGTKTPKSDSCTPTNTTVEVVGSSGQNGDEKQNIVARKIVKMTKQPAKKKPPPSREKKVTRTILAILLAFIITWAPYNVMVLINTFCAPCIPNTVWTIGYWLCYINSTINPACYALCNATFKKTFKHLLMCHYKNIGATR", "assay": "Selectivity interaction (Panel of kinases, GPCRs, ion channels and transporters (enzymatic assay)) EUB0000223bCl CHRM2"}}}
{"smiles": "Cc1cc(F)c(C(=O)Nc2cccc(-c3nncn3C(C)C)n2)cc1-n1cnc(C2CC2)c1", "values": [{"measurement": "% of control", "setting": "[1]", "result": 100, "unit": "%"}]}
{"smiles": "CC(=O)c1cc(-c2ccccc2OCC2CC2)c2ncccn12", "values": [{"measurement": "% of control", "setting": "[2]", "result": 93, "unit": "%"}]}
{"smiles": "COc1cc(N(C)c2ccnc3ccc(C(F)(F)F)cc23)cc(OC)c1OC", "values": [{"measurement": "% binding", "setting": "[3]", "result": 75, "unit": "%"}]}
{"smiles": "Nc1cnc(N2CCc3cc(S(=O)(=O)Nc4c(F)cc(Cl)cc4F)cc(N4CCCC4=O)c32)nc1", "note": "[TP-020n]", "values": [{"measurement": "% of control", "setting": "[4]", "result": 95, "unit": "%"}]}
{"smiles": "C=CC(=O)Nc1cc(-n2c(=O)ccc3cnc4ccc(-c5ccc(NS(C)(=O)=O)cc5)cc4c32)ccc1C", "values": [{"measurement": "% of control", "setting": "[5]; at 1 µM", "result": 100, "unit": "%"}, {"measurement": "% of control", "setting": "[5]; at 10 µM", "result": 74, "unit": "%"}, {"measurement": "% of control", "setting": "[6]; at 1 µM", "result": 84, "unit": "%"}, {"measurement": "% of control", "setting": "[6]; at 10 µM", "result": 100, "unit": "%"}]}
{"smiles": "CN(C)CCOc1ccc(-c2nc(-c3ccncc3)c(-c3ccc4c(c3)CC/C4=N\\O)[nH]2)cc1", "values": [{"measurement": "% of control", "setting": "[7]", "result": 100, "unit": "%"}]}
{"smiles": "COc1cc(C(=O)N2CC[C@@H](O)[C@@H](N)C2)cc2nc(-c3cc4ccccc4n3CC3CC3)n(C)c12", "values": [{"measurement": "pXC50", "setting": "[8]", "result": "< 4.8", "unit": "M"}]}
